Data reported in US20090227533A1, “miR-34 Regulated Genes and Pathways as Targets for Therapeutic Intervention” (priority 2007, published 2009).

What was measured:
SCLC and NSCLC cells = details: various lung cancer cells (Tsai et al., 1993; Ohsaki et al., 1992); cited from earlier work
Calu-3 cells = test: Alamar Blue proliferation assay, lung cancer cells; type: cell-based, human; details: Calu-3, normalized to NC (100%)
Source text: (§1) The inventors assessed the therapeutic effect of hsa-miR-34a for lung cancer by using eight individual lung cancer cell lines. To measure cellular proliferation of lung cancer cells, the following non-small cell lung cancer (NSCLC) cells were used: cells derived from lung adenocarcinoma (A549, H522, Calu-3, HCC2935), cells derived from lung squamous cell carcinoma (H226), cell derived from lung adenosquamous cell carcinoma (H596), cells derived from lung bronchioalveolar carcinoma (H1650), and cells derived from lung large cell carcinoma (H460). Synthetic hsa-miR-34a (Pre-miR™-hsa-miR-34a, Ambion cat. no. AM17100) or negative control (NC) miRNA (Pre-miR™ microRNA Precursor Molecule-Negative Control #2; Ambion cat. no. AM17111) was delivered via lipid-based transfection into A549, H522, H596, Calu-3, HCC2935, H1650, H460 cells and via electroporation into H226 cells.
(§2) Lipid-based reverse transfections were carried out in triplicate according to a published protocol (Ovcharenko et al., 2005) and the following parameters: cells (5,000-12,000 per 96 well), 0.1-0.2 μl Lipofectamine™ 2000 (cat. no. 11668-019, Invitrogen Corp., Carlsbad, Calif., USA) in 20 μl OptiMEM (Invitrogen), 30 nM final concentration of miRNA in 100 μl. Electroporation of H226 cells was carried out using the BioRad Gene Pulser Xcell™ instrument (BioRad Laboratories Inc., Hercules, Calif., USA) with the following settings: 5×10^6 cells with 5 μg miRNA in 200 μl OptiMEM (1.6 μM miRNA), square wave pulse at 250 V for 5 ms. Electroporated H226 cells were seeded at 7,000 cells per 96-well in a total volume of 100 μl. All cells except for Calu-3 cells were harvested 72 hours post transfection or electroporation for assessment of cellular proliferation. Calu-3 cells were harvested 10 days post transfection. Proliferation assays were performed using Alamar Blue (Invitrogen) following the manufacturer's instructions. As a control for inhibition of cellular proliferation, siRNA against the motor protein kinesin 11, also known as Eg5, was used. Eg5 is essential for cellular survival of most eukaryotic cells and a lack thereof leads to reduced cell proliferation and cell death (Weil et al., 2002). siEg5 was used in lipid-based transfection following the same experimental parameters that apply to miRNA. The inventors also used a DNA topoisomerase II inhibitor, etoposide, at a final concentration of 10 μM and 50 μM as an internal standard for the potency of miRNAs. Etoposide is an FDA-approved DNA topoisomerase II inhibitor in the treatment of lung cancer. […] Percent (%) proliferation values from the Alamar Blue assay were normalized to values from cells treated with negative control miRNA. Percent proliferation of hsa-miR-34a treated cells relative to cells treated with negative control miRNA (100%) is shown in Table 7 and in FIG. 1.

H460 cells = test: Alamar Blue proliferation assay, lung cancer cells; type: cell-based, human; details: normalized to NC (100%)
Source text: as §1, §2

H596 cells = test: Alamar Blue proliferation assay, lung cancer cells; type: cell-based, human; details: normalized to NC (100%)
Source text: as §1, §2

A549 cells = test: Alamar Blue proliferation assay, lung cancer cells; type: cell-based, human; details: normalized to NC (100%)
Source text: as §1, §2

H1650 cells = test: Alamar Blue proliferation assay, lung cancer cells; type: cell-based, human; details: normalized to NC (100%)
Source text: as §1, §2

H522 cells = test: Alamar Blue proliferation assay, lung cancer cells; type: cell-based, human; details: normalized to NC (100%)
Source text: as §1, §2

H226 cells = test: Alamar Blue proliferation assay, lung cancer cells (electroporation); type: cell-based, human; details: normalized to NC (100%)
Source text: as §1
Lipid-based reverse transfections were carried out in triplicate according to a published protocol (Ovcharenko et al., 2005) and the following parameters: cells (5,000-12,000 per 96 well), 0.1-0.2 μl Lipofectamine™ 2000 (cat. no. 11668-019, Invitrogen Corp., Carlsbad, Calif., USA) in 20 μl OptiMEM (Invitrogen), 30 nM final concentration of miRNA in 100 μl. Electroporation of H226 cells was carried out using the BioRad Gene Pulser Xcell™ instrument (BioRad Laboratories Inc., Hercules, Calif., USA) with the following settings: 5×10^6 cells with 5 μg miRNA in 200 μl OptiMEM (1.6 μM miRNA), square wave pulse at 250 V for 5 ms. Electroporated H226 cells were seeded at 7,000 cells per 96-well in a total volume of 100 μl. All cells except for Calu-3 cells were harvested 72 hours post transfection or electroporation for assessment of cellular proliferation. Calu-3 cells were harvested 10 days post transfection. Proliferation assays were performed using Alamar Blue (Invitrogen) following the manufacturer's instructions. As a control for inhibition of cellular proliferation, siRNA against the motor protein kinesin 11, also known as Eg5, was used. […]

H460 lung cancer cells = test: Alamar Blue proliferation assay with pair-wise miRNA combinations; type: cell-based, human; details: normalized to 600 pM negative control miRNA
Source text: miRNAs function in multiple pathways controlling multiple cellular processes. Cancer cells frequently show aberrations in several different pathways, which determine their oncogenic properties. […] The inventors assessed the efficacy of pair-wise miRNA combinations, administering hsa-miR-34a concurrently with either hsa-miR-124a, hsa-miR-126, hsa-miR-147, hsa-let-7b, hsa-let-7c or hsa-let-7g (Pre-miR™ miRNA, Ambion cat. no. AM17100). H460 lung cancer cells were transiently reverse-transfected in triplicate with each miRNA at a final concentration of 300 pM, resulting in 600 pM of total oligonucleotide. For negative controls, 600 pM of Pre-miR™ microRNA Precursor Molecule-Negative Control #2 (Ambion cat. no. AM17111) were used. To correlate the effect of various combinations with the effect of the sole miRNA, each miRNA at 300 pM was also combined with 300 pM negative control miRNA. Reverse transfection was carried out using the following parameters: 7,000 cells per 96 well, 0.15 μl Lipofectamine™ 2000 (Invitrogen) in 20 μl OptiMEM (Invitrogen), 100 μl total transfection volume. […] Cells were harvested 72 hours after transfection and subjected to Alamar Blue assays (Invitrogen). Percent proliferation values from the Alamar Blue assays were normalized to those obtained from cells treated with 600 pM negative control miRNA. Data are expressed as % proliferation relative to negative control miRNA-treated cells (Table 8, FIG. 3).
Additive activity of pair-wise combinations (e.g., hsa-miR-34a plus hsa-miR-147) is defined as an activity that is greater than the sole activity of each miRNA (e.g., the activity of hsa-miR-34a plus hsa-miR-147 is greater than that observed for hsa-miR-34a plus NC and the activity of hsa-miR-34a plus hsa-miR-147 is greater than that observed for hsa-miR-147 plus NC). Synergistic activity of pair-wise combinations is defined as an activity that is greater than the sum of the sole activity of each miRNA (e.g., the activity of hsa-miR-34a plus hsa-let-7g is greater than that observed for the sum of the activity of hsa-miR-34a plus NC and the activity of hsa-let-7g plus NC). […] The combinatorial use of miRNAs represents a potentially useful therapy for cancer and other diseases.

In the case of COc1cc([C@@H]2c3cc4c(cc3[C@@H](O[C@@H]3O[C@@H]5CO[C@@H](C)O[C@H]5[C@H](O)[C@H]3O)[C@H]3COC(=O)[C@H]23)OCO4)cc(OC)c1O [Etoposide, etoposide], the IC50 (SCLC and NSCLC cells) is listed as 1 to 25 µM, the “% proliferation” value (Calu-3 cells; etoposide 10 μM) is listed as 20.81% and the “% proliferation” value (Calu-3 cells; etoposide 50 μM) is listed as 13.53%. For the same compound, the “% proliferation” value (H460 cells; etoposide 10 μM) was 32.13%, the “% proliferation” value (H460 cells; etoposide 50 μM) was 27.82% and the “% proliferation” value (H596 cells; etoposide 10 μM) was 88.75%. For the same compound, the “% proliferation” value (H596 cells; etoposide 50 μM) was 73.39%, the “% proliferation” value (A549 cells; etoposide 10 μM) was 49.13% and the “% proliferation” value (A549 cells; etoposide 50 μM) was 42.18%. For the same compound, the “% proliferation” value (H1650 cells; etoposide 10 μM) was 90.98%, the “% proliferation” value (H1650 cells; etoposide 50 μM) was 60.31% and the “% proliferation” value (H522 cells; etoposide 10 μM) was 82.13%. For the same compound, the “% proliferation” value (H522 cells; etoposide 50 μM) was 61.08%, the “% proliferation” value (H226 cells; etoposide 10 μM) was 28.17% and the “% proliferation” value (H226 cells; etoposide 50 μM) was 9.33%. For the same compound, the “% proliferation” value (H460 lung cancer cells; etoposide 10 μM) was 20.19% and the “% proliferation” value (H460 lung cancer cells; etoposide 50 μM) was 14.94%.
